Reference: PMC11544713, “The Application of Untargeted Metabolomic Approaches for the Search of Common Bioavailable Metabolites in Human Plasma Samples from Lippia citriodora and Olea europaea Extracts” (Journal of Agricultural and Food Chemistry, 2024)

Experiment: Acute intervention: nutrikinetics of plasma metabolites after ingestion of L. citriodora extract (untargeted HPLC-ESI-QTOF-MS)
Protocol: A total of 25 healthy individuals participated, with an average age of 27 ± 9 years and a mean body mass index (BMI) of 23 ± 3 kg/m^2. None of the participants were taking any medications or nutritional supplements nor did they have any chronic diseases or gastrointestinal issues. The sample size was established based on findings from previous bioavailability research.[14] All participants provided informed consent before participating in the study.
The intervention study was carried out at Miguel Hernández University. Following an overnight fast, the volunteers were categorized into the subsequent groups: a subgroup to evaluate the LC leaf extract (n = 8), another for the OE leaf extract (n = 8), and the placebo subgroup (n = 9). This was a double-blind study, in which sample collection and treatment were carried out uniformly across all three subgroups.
Water was provided ad libitum. Prior to the ingestion of the capsule, a nurse inserted a cannula into the ulnar vein of each volunteer’s nondominant arm, and blood samples were drawn into EDTA-coated tubes at baseline (t = 0). Blood samples were then collected at 0.5, 1, 2, 4, 6, 8, and 10 h after the consumption of the 500 mg capsule. Plasma was separated through centrifugation (10 min at 3000 rpm and 4 °C) and stored at −80 °C until further analysis.
Plasma samples were initially treated using a mixture of methanol and ethanol (50:50; v:v) to remove proteins, following previously reported protocols.[19] During the sample treatment, pooled quality controls (pooled-QC) were prepared by combining equal aliquots from each sample. These QC samples were processed by using the same protocols as the experimental biological samples.
A reversed-phase analytical C18 column (Agilent Zorbax Eclipse Plus, 1.8 μm, 4.6 × 150 mm^2) with a protective cartridge with the same packing was used. MS data were acquired in negative ionization mode, operating in full scan across a mass-to-charge ratio (m/z) range of 50–1700. The analytical method used was adapted from that described by Villegas-Aguilar et al.[19]
Metabolite nutrikinetics were studied using PKSolver, an add-in program for pharmacokinetic data analysis in Microsoft Excel. The time to reach the maximum concentration (observed Tmax) was calculated for each significant metabolite. As an untargeted metabolomic approach was used to detect the circulating metabolites, these were not quantified. Therefore, the maximum concentration (Cmax) and area under the curve (AUC) parameters were calculated in a relative way by using the deconvoluted chromatographic areas. […] Statistical differences were determined by unpaired t tests. All p values less than 0.05 were considered statistically significant.

[1] = 0.5 h after L. citriodora extract
[2] = 1 h after L. citriodora extract
[3] = 2 h after L. citriodora extract
[4] = 4 h after L. citriodora extract
[5] = 6 h after L. citriodora extract
[6] = 8 h after L. citriodora extract
[7] = 10 h after L. citriodora extract
[8] = human plasma, 500 mg capsule of L. citriodora (LC) extract, oral, mean ± SD

Structure (SMILES) | mean chromatographic area in plasma, T0.5 [1] | mean chromatographic area in plasma, T1 [2] | mean chromatographic area in plasma, T2 [3] | mean chromatographic area in plasma, T4 [4] | mean chromatographic area in plasma, T6 [5] | mean chromatographic area in plasma, T8 [6] | mean chromatographic area in plasma, T10 [7] | AUC: area under the zero-moment curve [8] | Cmax: relative maximum plasma level [8] | observed Tmax: time required to reach Cmax [8] [h] | AUC: area under the zero-moment curve (human, in vivo, po, 500 mg) | Cmax: relative maximum plasma level (human, in vivo, po, 500 mg) | observed Tmax: time required to reach Cmax (human, in vivo, po, 500 mg) [h] | mean chromatographic area in plasma, T0.5 (in vivo) | mean chromatographic area in plasma, T1 (in vivo) | mean chromatographic area in plasma, T2 (in vivo) | mean chromatographic area in plasma, T4 (in vivo) | mean chromatographic area in plasma, T6 (in vivo) | mean chromatographic area in plasma, T8 (in vivo) | mean chromatographic area in plasma, T10 (in vivo)
CC1=CC(=O)CC(C)(C)C1(O)/C=C/C(C)=C/COC1OC(CO)C(O)C(O)C1O (single isomer, unassigned; isomer 1) [abscisic alcohol 11-glucoside isomer 1, abscisic alcohol 11-glucoside] | 50 | 188 | 61 | 0 | 0 | 0 | 0 | 259 ± 134 relative chromatographic area/h | 202 ± 82 relative chromatographic area | 1.2 ± 0.4 | – | – | – | – | – | – | – | – | – | –
O=C(O)C=Cc1ccc(OS(=O)(=O)O)c(O)c1 (single isomer, unassigned; isomer 1) [caffeic acid 4-sulfate isomer 1, caffeic acid 4-sulfate] | – | – | – | – | – | – | – | – | – | – | 1157 ± 757 relative chromatographic area/h | 325 ± 147 relative chromatographic area | 3 ± 1 | 21 | 89 | 280 | 177 | 86 | 67 | 0
COc1cc(CCCO)ccc1OC1OC(CO)C(O)C(O)C1O (single isomer, unassigned; isomer 1) [dihydroconiferin isomer 1, dihydroconiferin] | 44 | 137 | 0 | 0 | 0 | 0 | 0 | 126 ± 28 relative chromatographic area/h | 139 ± 19 relative chromatographic area | 0.9 ± 0.2 | – | – | – | – | – | – | – | – | – | –
CC1=CC(=O)CC(C)(C)C1(O)/C=C/C(C)=C/COC1OC(CO)C(O)C(O)C1O (single isomer, unassigned; isomer 2) [abscisic alcohol 11-glucoside isomer 2, abscisic alcohol 11-glucoside] | 111 | 519 | 176 | 23 | 0 | 0 | 0 | 757 ± 174 relative chromatographic area/h | 562 ± 251 relative chromatographic area | 2 ± 1 | – | – | – | – | – | – | – | – | – | –
O=C(O)C=Cc1ccc(OS(=O)(=O)O)c(O)c1 (single isomer, unassigned; isomer 2) [caffeic acid 4-sulfate isomer 2, caffeic acid 4-sulfate] | – | – | – | – | – | – | – | – | – | – | 1656 ± 1922 relative chromatographic area/h | 357 ± 268 relative chromatographic area | 3 ± 2 | 0 | 67 | 277 | 266 | 189 | 129 | 22
COc1cc(CCCO)ccc1OC1OC(CO)C(O)C(O)C1O (single isomer, unassigned; isomer 2) [dihydroconiferin isomer 2, dihydroconiferin] | 34 | 136 | 83 | 0 | 0 | 0 | 0 | 244 ± 102 relative chromatographic area/h | 136 ± 28 relative chromatographic area | 1 ± 0 | – | – | – | – | – | – | – | – | – | –
CC1=CC(=O)CC(C)(C)C1(O)/C=C/C(C)=C/COC1OC(CO)C(O)C(O)C1O (single isomer, unassigned; isomer 3) [abscisic alcohol 11-glucoside isomer 3, abscisic alcohol 11-glucoside] | 56 | 258 | 13 | 13 | 0 | 0 | 0 | 267 ± 94 relative chromatographic area/h | 258 ± 95 relative chromatographic area | 1 ± 0 | – | – | – | – | – | – | – | – | – | –
CC(O)/C=C\C/C=C\C/C=C\CCCCCCCC(=O)O (stereo not shown) [17-hydroxylinolenic acid] | 81 | 428 | 445 | 184 | 31 | 12 | 20 | 1621 ± 1914 relative chromatographic area/h | 335 ± 306 relative chromatographic area | 6 ± 4 | – | – | – | – | – | – | – | – | – | –
COc1cc(/C=C/C(=O)O)ccc1O[C@@H]1O[C@H](C(=O)O)[C@@H](O)[C@H](O)[C@H]1O [ferulic acid 4-O-glucuronide] | 0 | 0 | 66 | 163 | 217 | 177 | 89 | 1304 ± 1975 relative chromatographic area/h | 282 ± 358 relative chromatographic area | 5 ± 2 | – | – | – | – | – | – | – | – | – | –
CC(C)=C1CC2(C)C(=CC1=O)CCC(OC1OC(CO)C(O)C(O)C1O)C2C (stereo not shown) [isopetasoside] | 95 | 394 | 200 | 25 | 14 | 0 | 0 | 722 ± 166 relative chromatographic area/h | 455 ± 162 relative chromatographic area | 2 ± 1 | – | – | – | – | – | – | – | – | – | –
C=C(C)[C@@H]1[C@H]2OC(=O)[C@@H]1[C@]1(O)C[C@H]3O[C@]34C(=O)O[C@H]2[C@]14C [picrotoxinin] | 32 | 102 | 91 | 0 | 0 | 0 | 0 | 231 ± 102 relative chromatographic area/h | 136 ± 44 relative chromatographic area | 1.3 ± 0.5 | – | – | – | – | – | – | – | – | – | –
O=C(O)CCCCCCCCC(=O)O [sebacic acid Isomer 2, sebacic acid] | – | – | – | – | – | – | – | – | – | – | – | – | – | 15 | 86 | 86 | 15 | – | – | –
O=C(O)CCCCCCCCC(=O)O [sebacic acid isomer, sebacic acid] | – | – | – | – | – | – | – | – | – | – | 141 ± 86 relative chromatographic area/h | 119 ± 27 relative chromatographic area | 1.2 ± 0.4 | 22 | 102 | 35 | 0 | 0 | 0 | 0
